The NIST ThermoML archive (doi:10.1021/acs.jced.5b00606)

How the values were obtained:
[1] = for vapor or sublimation pressure: Liquid, Transpiration method
[2] = Molar enthalpy of transition or fusion; conditions: Crystal; Drop ice or diphenyl ether calorimetry

c1cn2ccnc2cn1 [imidazo[1,2-a]pyrazine]
[1]
Conditions	vapor or sublimation pressure [kPa]
369.6 K	0.1641
373.8 K	0.2038
379 K	0.2643
383 K	0.34
385.2 K	0.373
388.2 K	0.4381
390.2 K	0.4952
393.4 K	0.5831

Conditions	Triple point temperature [K]
[1], Crystal, DTA	359.2

Conditions	Molar enthalpy of transition or fusion [kJ/mol]
[2]	15.3
